Test results taken from patent publication US20090012014A1, “Compound, Composition and a Process Thereof” (INDUS BIOTECH PVT. LTD, priority 2007, published 2009).
Marks after values point to notes of the source that are not given here.

What was measured:
[1] = system: paw edema in Carrageenan model; experiment: Acute study: Carrageenan induced paw edema; format: in vivo, Swiss Wistar rats; conditions: Dose 10 mg/kg; paw volume at 3 hrs
Description: These tests are for the inhibition of inflammation caused by prostaglandins in short period of time. This can be tested in animal (Swiss Wistar rats) as per well known protocols which are treated with Carrageenan. This model tests out anti-inflammatory activity caused by prostaglandin inhibition. Celecoxib is given as a positive control to do a comparison and evaluate the efficacy of anti-inflammatory purified extract as described above in Prostaglandin inhibition in 3 hrs.
Paw Volume measured is compared with Control group and standard drug, celecoxib. Paw volume initial to the paw volume at 1 h, 2 h, 3 h is measured and peak inhibition, which is at 3 hrs is noted down. In this model efficacy as well as dosage of drug is arrived by considering peak % inhibition. […] This is also not statistically significant.

Cotton pellet Granuloma = experiment: Sub acute study: cotton pellet granuloma; format: in vivo, Swiss Wistar rats; conditions: Dose 10 mg/kg; dried pellet weight after 7 days
Description: This evaluates inflammation over a period of 7 days. This is done by classical animal model (in Swiss Wistar tats) of cotton pallet granuloma. Celecoxib is a positive control for comparison of the efficacy of Test Compound.
100 mg per kg is the optimal dose. A comparison is made with Celecoxib.

TNF-α = TNF-α level in serum of FCA induced arthritic rat; format: in vivo
Description: This activity mimics the onset of autoimmune damage to joints and tests the efficiency of drug against this damage. Leflunamide is taken as positive control. Here Swiss Wistar rats are treated with Freunds Complete Adjuvant (CFA) to induce chronic inflammation symptoms similar to rheumatis diseases. The symptoms appear by 13th day. The drug treatment is started from 13th day to 23rd day for 10 days.
Effect of Test compound and standard drug Celecoxib on TNF-α level in FCA induced arthritis rat. The serum from the FCA induced arthritic rat was examined for Tumor necrosis factor alpha. The experimental protocol was same as example no.

gastric mucosa = experiment: Gastric ulcerogenic effects after repeated oral administration; format: in vivo, male Swiss Wistar rats
From the text: Gastric ulcerogenic effects of Test compound and celecoxib after repeated oral administration for 7 consecutive days to the male Swiss Wistar rats.
In the control group, structure of the gastric mucosa appears normal.

[2] = male, Swiss Wistar, rat, in vivo, po, 5 mg/kg, 7 days

Cc1ccc(-c2cc(C(F)(F)F)nn2-c2ccc(S(N)(=O)=O)cc2)cc1 [Celecoxib, reference compound]
Anti-inflammatory activity (% Inhibition) in Carrageenan model In 3 Hrs. [1]: 45.2** % | Anti-inflammatory activity (% Inhibition) in Cotton pellet Granuloma (Cotton pellet Granuloma): 43.2** % | Concentration of TNF-α in pg/mL Day 0 (TNF-α; Day 0): 28.9 pg/mL | Concentration of TNF-α in pg/mL Day 13 (TNF-α; Day 13): 47.9 pg/mL | Concentration of TNF-α in pg/mL Day 21 (TNF-α; Day 21): 33.6 pg/mL | Mean score of Lesion intensity (gastric mucosa; Dose 5 mg/kg p.o., 7 consecutive days): 1.6 | Average of no. of ulcer per animal (gastric mucosa; [2]): 2 | No. of animals with ulcer (gastric mucosa; [2]): 2 | No. of animals with ulcer (%) (gastric mucosa; [2]): 33.3% | Ulcer Index (UI) (gastric mucosa; [2]): 3.7
